Experimental data from patent publication US10596212B2, “Mangifera indica as a Sirtuin 1 activating agent” (Vital Solutions Swiss AG, priority 2014, dated 2020).

Target: T1, human recombinant SIRT1 (Homo sapiens, UniProt Q96EB6)
T1 construct: purchased Cayman Chemical
T1 sequence (Q96EB6 1-747): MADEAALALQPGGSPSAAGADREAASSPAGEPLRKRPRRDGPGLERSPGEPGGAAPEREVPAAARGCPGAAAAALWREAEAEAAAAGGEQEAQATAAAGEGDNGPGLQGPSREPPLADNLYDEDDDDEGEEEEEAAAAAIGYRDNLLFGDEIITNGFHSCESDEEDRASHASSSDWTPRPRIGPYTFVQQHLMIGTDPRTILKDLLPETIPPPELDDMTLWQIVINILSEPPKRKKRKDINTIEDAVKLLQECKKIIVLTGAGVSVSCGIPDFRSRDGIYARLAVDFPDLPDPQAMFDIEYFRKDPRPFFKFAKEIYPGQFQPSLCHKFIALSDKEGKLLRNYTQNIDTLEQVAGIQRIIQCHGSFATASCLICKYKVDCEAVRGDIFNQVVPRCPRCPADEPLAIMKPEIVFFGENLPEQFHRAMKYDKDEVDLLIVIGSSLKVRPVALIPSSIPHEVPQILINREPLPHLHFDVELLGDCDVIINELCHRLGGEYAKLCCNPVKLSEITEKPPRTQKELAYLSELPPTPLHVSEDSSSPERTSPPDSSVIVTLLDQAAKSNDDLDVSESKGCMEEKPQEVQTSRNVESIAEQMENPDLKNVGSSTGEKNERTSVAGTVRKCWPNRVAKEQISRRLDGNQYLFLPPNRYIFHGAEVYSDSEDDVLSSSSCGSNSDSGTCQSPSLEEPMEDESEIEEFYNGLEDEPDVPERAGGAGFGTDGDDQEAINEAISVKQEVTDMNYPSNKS
Experiment: SIRT1 Direct Fluorescent Screening Assay (Cayman Chemical), SIRT1 activation
Format: biochemical
Conditions: positive control, working concentration 1 mM, final assay concentration 32.5 μg/ml
Procedure: The assay was performed using SIRT1 Direct Fluorescent Screening Assay kit, (Cayman Chemical). In the assay resveratrol was used as a positive comparative control in the working concentration of 1 mM, or 228 μg/ml corresponding to a final assay concentration of 32.5 μg/ml.
Cayman's SIRT1 Direct Fluorescent Screening Assay Kit is fluorescence-based method for screening SIRT1 inhibitors or activators. In the first step, the substrate is incubated with human recombinant SIRT1 along with its co-substrate NAD+. Deacetylation sensitizes the substrate such that treatment with the developer in the second step releases a fluorescent product. The fluorophore is analyzed using an excitation wavelength of 350-360 nm and an emission wavelength of 450-465 nm.
The activation is calculated as % activation=(Sample−Initial Activity)/Initial Activity*100.

- activation of SIRT1: 37.5%
SMILES: Oc1ccc(C=Cc2cc(O)cc(O)c2)cc1 [resveratrol]
